Source: patent publication US11390900B2, “Antimicrobial cartridges and processes for multiplexed antimicrobial susceptibility testing” (priority 2018, dated 2022)
≈ marks a conversion by molar mass, not a printed value. Like-named read-outs stand apart in the source and are kept apart here. One block for each molecule: values may come before it.

Assays:
[1] = tested on: patient sample microbes; experiment: AST MIC results for antimicrobial panel 2 (384-well panel from Master Plate vs 96-well panel); type: cell-based; details: for MICs obtained from panel made from Master Plate: antimicrobial panel 2, 384 well patient cartridge; for MICs obtained from 96-well Antibiotic Panel: antimicrobial panel 2, standard 96 well AST assay plate
Excerpt: (§1) An assay setup comprises preparation of patient (target) cartridge by dispensing antimicrobials were from the master cartridge or intermediate serial dilution cartridges into one or more 384 reservoir patient cartridge, each antimicrobial in about 7 serial dilutions in triplicate, and covering the dynamic range of each antimicrobial that is known to be effective and therefore should be reported. The dilution range included the expected minimum inhibitory concentration (MIC) for each antimicrobial. But most importantly, dilution ranges, that is, antimicrobial concentrations beyond the range known to be effective are included in the patient cartridge as per the present invention.
(§2) The remaining reservoirs of the 384 well patient cartridge are utilized for setting up test controls: a no-antimicrobial control (negative control) was included for each antimicrobial compound; and a positive control was included for each antimicrobial set, where a microorganism that is not susceptible to the antimicrobial was added to the well. Each control set was also dispensed at least in duplicate per 384 well cartridge. Additional test controls may be included as deemed necessary by one of skill in the art. Equal amount of a patient sample was dispensed to each of the wells in the cartridge, except in the wells designated for no-sample control, if included. The patient cartridge was ready for determination of susceptibility of microbes from the patient sample to the twelve antimicrobials at the range of concentrations applied, simultaneously. Multiple such plates can be set up in parallel for testing samples from multiple patients, each patient sample per plate. An AST assay was performed on the prepared patient cartridges.
(§3) First, three master plates are loaded by the user onto chilled plate holders (set to 4° C.). These consist of one Broad Spectrum, one Gram-Positive and one Gram-Negative antibiotic plate. Next the bulk reagents and pipette tips are loaded on tube rack. Master and bulk reagent pipette tips and sample dilution tray are reloaded every 12 samples. For every set of tests, up to four Patient Samples in tubes and up to four 384-well Target Plates (Patient plate) are loaded.
(§4) Antibiotics are transferred from Broad Spectrum Master Plate to Target Plate(s). Antibiotics are “stamped” according to FIG. 10A-B. The inoculator tips should be placed back in the same position of the Broad Spectrum Tip Box for use on subsequent target plates, but should only be used for same antibiotics to avoid cross contamination.
(§5) Antimicrobials are transferred from Gram-Positive OR Gram-Negative Master Plate to Target Plate(s) and the antibiotics are “stamped” according to FIG. 11A-B. The inoculator should place tips back in the same position of the correct tip box for use on subsequent target plates. Good care is taken such that any cross contamination is prevented.
(§6) Using new tips from the Sample Tip Box, 50 μL of diluted patient sample are transferred into Target Plate according to Table Four, this is done with a “jet dispense” to avoid cross contamination. After the Patient Sample has been transferred to each well on the Target Plate, the tips should be disposed of to avoid cross contamination. The above steps are repeated for each additional Patient Sample and Target Plate.
(§7) Shown in Table 6 and Table 7, MIC results for antimicrobial panels 1 and 2 respectively using a master cartridge format and a 384 well patient cartridge (column 3) agrees reliably with that run by standard 96 well AST assay plate (right hand column).

[2] = tested on: S. aureus 29213; details: MIC range, cited from earlier work
[3] = tested on: patient sample microbes; details: antimicrobial panel 2, MIC range; cited from earlier work
[4] = tested on: clinical isolate of S. aureus; experiment: Broth microdilution reference method MIC; type: cell-based; details: Staphylococcus aureus, read-out: MICs obtained from the broth microdilution reference method
Procedure: The antibiotics shown are vancomycin, daptomycin, ceftaroline and levofloxacin, of which the MICs obtained from the broth microdilution reference method for this strain were 0.5, 0.25, 0.12, and 0.25 μg/ml, respectively. A clinical isolate of S. aureus was used. Data represents the TRF signal in RFUs. Graphs in the top row contain data from 384-well plates. Graphs in the bottom row contain data from 96-well plates.

[5] = tested on: E. faecalis 29212; details: MIC range, cited from earlier work
[6] = tested on: patient sample microbes; experiment: AST MIC results for antimicrobial panel 1 (384-well panel from Master Plate vs 96-well panel); type: cell-based; details: for MICs obtained from panel made from Master Plate: antimicrobial panel 1, 384 well patient cartridge; for MICs obtained from 96-well Antibiotic Panel: antimicrobial panel 1, standard 96 well AST assay plate
Excerpt: as §1, §2, §3, §4, §5, §6, §7

[7] = tested on: patient sample microbes; details: antimicrobial panel 1, MIC range; cited from earlier work
[8] = tested on: K. pneumoniae 700603; details: MIC range, K. pneumoniae 700603, Gram negative panel; cited from earlier work
[9] = tested on: E. coli 25922; details: MIC range, E. coli 25922, Gram negative panel; cited from earlier work
[10] = S. aureus 29213, Gram positive panel
[11] = E. faecalis 29212, Gram positive panel
[12] = E. faecalis 29212, Gram negative panel
[13] = S. aureus 29213, Gram negative panel

Molecule: CC(=O)NC[C@H]1CN(c2ccc(N3CCOCC3)c(F)c2)C(=O)O1 [Linezolid]
MICs obtained from panel made from Master Plate [1]: 2 µg/mL | MICs obtained from 96-well Antibiotic Panel [1]: 2 µg/mL | CLSI-Defined QC Range [2, 10]: 1 to 4 µg/mL | Quality Control Range [3]: 1-4

MIC ([4]; clinical isolate of S. aureus): 0.25 µg/mL (≈ 0.154 µM)
Molecule: CCCCCCCCCC(=O)N[C@@H](Cc1c[nH]c2ccccc12)C(=O)N[C@H](CC(N)=O)C(=O)N[C@@H](CC(=O)O)C(=O)N[C@@H]1C(=O)NCC(=O)N[C@@H](CCCN)C(=O)N[C@@H](CC(=O)O)C(=O)N[C@H](C)C(=O)N[C@@H](CC(=O)O)C(=O)NCC(=O)N[C@H](CO)C(=O)N[C@@H]([C@H](C)CC(=O)O)C(=O)N[C@@H](CC(=O)c2ccccc2N)C(=O)O[C@@H]1C [Daptomycin]
CLSI-Defined QC Range [5, 11]: 1 to 4 µg/mL

Molecule: CCO/N=C(\C(=O)N[C@@H]1C(=O)N2C(C(=O)[O-])=C(Sc3nc(-c4cc[n+](C)cc4)cs3)CS[C@H]12)c1nsc(N)n1 [Ceftaroline]
MICs obtained from panel made from Master Plate [1]: 0.5 µg/mL | MICs obtained from 96-well Antibiotic Panel [1]: 0.25 µg/mL | MIC ([4]; clinical isolate of S. aureus): 0.12 µg/mL (≈ 0.198 µM)

Molecule: C[C@@H](O)[C@H]1C(=O)N2C(C(=O)O)=C(S[C@@H]3CN[C@H](C(=O)N(C)C)C3)[C@H](C)[C@H]12 [Meropenem]
CLSI-Defined QC Range [5, 12]: 2 to 8 µg/mL

Molecule: Nc1nc(-n2cc(C(=O)O)c(=O)c3cc(F)c(N4CC(O)C4)c(Cl)c32)c(F)cc1F [Delafloxacin]
CLSI-Defined QC Range [5, 11]: 0.016 to 0.12 µg/mL

Molecule: CC[C@H]1OC(=O)[C@H](C)[C@@H](O[C@H]2C[C@@](C)(OC)[C@@H](O)[C@H](C)O2)[C@H](C)[C@@H](O[C@@H]2O[C@H](C)C[C@H](N(C)C)[C@H]2O)[C@](C)(O)C[C@@H](C)CN(C)[C@H](C)[C@@H](O)[C@]1(C)O [Azithromycin]
CLSI-Defined QC Range [2, 10]: 0.5 to 2 µg/mL

Molecule: CO/N=C(\C(=O)N[C@@H]1C(=O)N2C(C(=O)O)=C(CSc3nc(=O)c(=O)[nH]n3C)CS[C@H]12)c1csc(N)n1 [Ceftriaxone]
MICs obtained from panel made from Master Plate [6]: ≤ 0.125 µg/mL | MICs obtained from 96-well Antibiotic Panel [6]: ≤ 0.12 µg/mL | MICs obtained from panel made from Master Plate [1]: 2 µg/mL | MICs obtained from 96-well Antibiotic Panel [1]: 4 µg/mL | CLSI-Defined QC Range [2, 13]: 1 to 8 µg/mL | Quality Control Range [7]: 0.03-0.12 | Quality Control Range [3]: 1-8

Molecule: NCC[C@H](O)C(=O)N[C@@H]1C[C@H](N)[C@@H](O[C@H]2O[C@H](CN)[C@@H](O)[C@H](O)[C@H]2O)[C@H](O)[C@H]1O[C@H]1O[C@H](CO)[C@@H](O)[C@H](N)[C@H]1O [Amikacin]
MICs obtained from panel made from Master Plate [6]: 4 µg/mL | MICs obtained from 96-well Antibiotic Panel [6]: 4 µg/mL | CLSI-Defined QC Range [2, 13]: 1 to 4 µg/mL | Quality Control Range [7]: 0.5-4

Molecule: CC1(C)S[C@@H]2[C@H](NC(=O)[C@H](N)c3ccc(O)cc3)C(=O)N2[C@H]1C(=O)O [Amoxicillin (alone), Amoxicillin]
CLSI-Defined QC Range [8]: >128 µg/mL

Molecule: C[C@@H](O)[C@H]1C(=O)N2C(C(=O)O)=C(S[C@@H]3CN[C@H](C(=O)Nc4cccc(C(=O)O)c4)C3)[C@H](C)[C@H]12 [Ertapenem]
CLSI-Defined QC Range [2, 13]: 0.06 to 0.25 µg/mL

Molecule: C[C@H]1COc2c(N3CCN(C)CC3)c(F)cc3c(=O)c(C(=O)O)cn1c23 [Levofloxacin]
MICs obtained from panel made from Master Plate [6]: ≤ 0.25 µg/mL | MICs obtained from 96-well Antibiotic Panel [6]: ≤ 0.06 µg/mL | MICs obtained from panel made from Master Plate [1]: ≤ 0.25 µg/mL | MICs obtained from 96-well Antibiotic Panel [1]: 0.25 µg/mL | MIC ([4]; clinical isolate of S. aureus): 0.25 µg/mL (≈ 0.692 µM)

Molecule: CO[C@H]1/C=C/O[C@@]2(C)Oc3c(C)c(O)c4c(O)c(c(/C=N/N5CCN(C)CC5)c(O)c4c3C2=O)NC(=O)/C(C)=C\C=C\[C@H](C)[C@H](O)[C@@H](C)[C@@H](O)[C@@H](C)[C@H](OC(C)=O)[C@@H]1C [Rifampin]
MICs obtained from panel made from Master Plate [1]: ≤ 0.25 µg/mL | MICs obtained from 96-well Antibiotic Panel [1]: 0.004 µg/mL | CLSI-Defined QC Range [5, 11]: 0.5 to 4 µg/mL | Quality Control Range [3]: 0.004-0.015

Molecule: NC[C@H]1O[C@H](O[C@H]2[C@H](O)[C@@H](O[C@H]3O[C@H](CO)[C@@H](O)[C@H](N)[C@H]3O)[C@H](N)C[C@@H]2N)[C@H](N)C[C@@H]1O [Tobramycin]
MICs obtained from panel made from Master Plate [6]: 0.5 µg/mL | MICs obtained from 96-well Antibiotic Panel [6]: 1 µg/mL | CLSI-Defined QC Range [5, 12]: 8 to 32 µg/mL | Quality Control Range [7]: 0.25-1

Molecule: C[C@H]1[C@H](NC(=O)/C(=N\OC(C)(C)C(=O)O)c2csc(N)n2)C(=O)N1S(=O)(=O)O [Aztreonam]
CLSI-Defined QC Range [9]: 0.06 to 0.25 µg/mL | CLSI-Defined QC Range [8]: 8 to 64 µg/mL

Molecule: CO/N=C(\C(=O)N[C@@H]1C(=O)N2C(C(=O)O)=C(COC(N)=O)CS[C@H]12)c1ccco1 [Cefuroxime]
CLSI-Defined QC Range [9]: 2 to 8 µg/mL

Molecule: CC[C@H]1OC(=O)[C@H](C)[C@@H](O[C@H]2C[C@@](C)(OC)[C@@H](O)[C@H](C)O2)[C@H](C)[C@@H](O[C@@H]2O[C@H](C)C[C@H](N(C)C)[C@H]2O)[C@](C)(O)C[C@@H](C)C(=O)[C@H](C)[C@@H](O)[C@]1(C)O [Erythromycin]
CLSI-Defined QC Range [5, 11]: 1 to 4 µg/mL

Molecule: CN(C)[C@@H]1C(O)=C(C(N)=O)C(=O)[C@@]2(O)C(O)=C3C(=O)c4c(O)c(NC(=O)CN5CCCC5)cc(F)c4C[C@H]3C[C@@H]12 [Eravacycline]
CLSI-Defined QC Range [9]: 0.03 to 0.12 µg/mL | CLSI-Defined QC Range [5, 11]: 0.016 to 0.06 µg/mL

Molecule: CO/N=C(\C(=O)N[C@@H]1C(=O)N2C(C(=O)[O-])=C(C[N+]3(C)CCCC3)CS[C@H]12)c1csc(N)n1 [Cefepime]
MICs obtained from panel made from Master Plate [6]: ≤ 0.25 µg/mL | MICs obtained from 96-well Antibiotic Panel [6]: ≤ 0.03 µg/mL | CLSI-Defined QC Range [2, 13]: 1 to 4 µg/mL | Quality Control Range [7]: 0.015-0.12

Molecule: Cc1nnc(SCC2=C(C(=O)O)N3C(=O)[C@@H](NC(=O)Cn4cnnn4)[C@H]3SC2)s1 [Cefazolin]
CLSI-Defined QC Range [9]: 1 to 4 µg/mL

Molecule: Cc1onc(-c2ccccc2)c1C(=O)N[C@@H]1C(=O)N2[C@@H]1SC(C)(C)[C@@H]2C(=O)O [Oxacillin]
MICs obtained from panel made from Master Plate [1]: 0.5 µg/mL | MICs obtained from 96-well Antibiotic Panel [1]: 0.5 µg/mL | CLSI-Defined QC Range [2, 10]: 0.12 to 0.5 µg/mL | Quality Control Range [3]: 0.12-0.5

Molecule: CO/N=C(\C(=O)N[C@@H]1C(=O)N2C(C(=O)O)=C(COC(C)=O)CS[C@H]12)c1csc(N)n1 [Cefotaxime]
CLSI-Defined QC Range [2, 13]: 1 to 4 µg/mL

Molecule: Cn1nnc(-c2ccc(-c3ccc(N4C[C@H](CO)OC4=O)cc3F)cn2)n1 [Tedizolid]
MICs obtained from panel made from Master Plate [1]: 0.25 µg/mL | MICs obtained from 96-well Antibiotic Panel [1]: 0.5 µg/mL | Quality Control Range [3]: 0.25-1

Molecule: CN[C@H](CC(C)C)C(=O)N[C@H]1C(=O)N[C@@H](CC(N)=O)C(=O)N[C@H]2C(=O)N[C@H]3C(=O)N[C@H](C(=O)N[C@H](C(=O)O)c4cc(O)cc(O)c4-c4cc3ccc4O)[C@H](O)c3ccc(c(Cl)c3)Oc3cc2cc(c3O[C@@H]2O[C@H](CO)[C@@H](O)[C@H](O)[C@H]2O[C@H]2C[C@](C)(N)[C@H](O)[C@H](C)O2)Oc2ccc(cc2Cl)[C@H]1O [Vancomycin]
MIC [4]: 0.5 µg/mL (≈ 0.345 µM) | CLSI-Defined QC Range [2, 10]: 0.5 to 2 µg/mL

Molecule: COc1cc(Cc2cnc(N)nc2N)cc(OC)c1OC [Trimethoprim]
CLSI-Defined QC Range [2, 10]: 1 to 4 µg/mL

Molecule: Penicillin
CLSI-Defined QC Range [2, 10]: 0.25 to 2 µg/mL
